pIC50, pKd: −log10 of the molar value. Entries after “also recorded” stand apart in the source; their conditions may differ. Like-named read-outs stand apart in the source and are kept apart here.
Tests used:
[1] = biological target: T1, protein tyrosine phosphatase 1b (PTP1b) (Homo sapiens, UniProt P18031); experiment: ESI-MS detection of 1:1 noncovalent complex with PTP1b; type: binding; settings: mass spectrometry; for formation of specific complex with PTP1b: 1:1 noncovalent complex
T1 sequence (P18031 1-435): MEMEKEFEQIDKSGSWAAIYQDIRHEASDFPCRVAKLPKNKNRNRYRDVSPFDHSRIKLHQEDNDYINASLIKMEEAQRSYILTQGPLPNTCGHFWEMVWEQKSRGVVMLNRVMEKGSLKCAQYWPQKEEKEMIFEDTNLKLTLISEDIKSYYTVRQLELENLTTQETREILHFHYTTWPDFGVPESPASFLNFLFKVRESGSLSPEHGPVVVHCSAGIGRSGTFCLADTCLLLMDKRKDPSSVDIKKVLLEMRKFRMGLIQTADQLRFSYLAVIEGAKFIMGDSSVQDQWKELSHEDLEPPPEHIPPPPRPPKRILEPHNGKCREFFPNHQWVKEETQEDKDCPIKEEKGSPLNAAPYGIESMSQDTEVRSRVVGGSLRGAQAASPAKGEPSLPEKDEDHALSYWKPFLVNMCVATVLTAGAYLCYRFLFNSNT
Procedure: (§1) The candidate target binding ligands shown below were tested by mass spectrometry in a manner similar to Example 1 to determine whether any of the fragments bound specifically to the target biomolecule, protein tyrosine phosphatase 1b (PTP1b), observed 1:1 noncovalent complex. Fragment molecules were chosen based on either their ability to mimic the stabilized transition state of PTP1b with a tyrosine phosphate ester or based on their known or suspected ability to inhibit cysteine proteases and the homology or similarities in the active sites PTP1b and cysteine proteases. The transition state mimics included in the library are derivatives of moniliformin and deltic acid. Each of these compounds contain a planar arrangement of oxygen atoms around and electrophilic center, similar to the planar arrangement of oxygen atoms around an electrophilic phosphorous in the stabilized transition state complex of phosphotyrosine and PTP1b. Also contained in the library were various examples of some fragment molecules containing functional groups known or suspected to interact with an active site cysteine of cysteine proteases. Included in this example are aldehydes, α-ketoacids, boronic acids, and […]. Other fragment molecules could contain functional groups such as α-ketoesters, sulfonyl fluorides, haloketones, azabenzenes, and disulfides and other fragment molecules that contain functional groups known or suspected to react with mercaptans. […] The ability of these fragments to block the function of PTP1b was determined by a chromagenic substrate assay.

PTP1b = biological target: T2, PTP1b (Homo sapiens, UniProt P18031); experiment: chromagenic substrate assay of PTP1b function; type: biochemical; settings: titration curves, FIG. 4; for pIC50: read-out: IC50
T2 sequence (P18031 1-435): T1 sequence (P18031 1-435)
Procedure: FIG. 4 is a graph of titration curves used to determine the IC50 of the squaric acid fragment 8A and moniliformin.
as §1

[2] = biological target: T3, stromelysin (catalytic domain) (Homo sapiens, UniProt P08254); experiment: ESI-MS detection of noncovalent complexes and competition experiments with stromelysin; type: binding; settings: for competitive / non-competitive binder or non-binder: ESI-MS competition experiments, S1′ site, same binding site as 4-phenylpyridine; for specificity of association (no greater than 1:1 complex): ESI-MS; for competition of two ligands for the same binding site: pairwise ESI-MS experiment, ternary complex present or absent
T3 construct: The catalytic domain of stromelysin was prepared in accordance with well-known known procedures; made in house
Procedure: FIGS. 7A-7E are ligands that are known to bind in the S1′ site on stromelysin. […] The relative dissociation constants for each for each ligand were measured to optimize the amide. Competition experiments were also performed to assure that each ligand bound in the same binding site as 4-phenylpyridine. [drawing 41]
Acetohydroxamic acid was used as the ligand for the first binding site of stromelysin. It has been reported that complexation of zinc with acetohydroxamic acid prevents autocatalytic degradation of the protein.
The ESI-MS measurements were recorded on a Perkin Elmer Sciex API III mass spectrometer. Samples were introduced via […] i.d. fused silica capillary from a 50 μL syringe using a Harvard Apparatus Model 22-syringe pump at a flow rate of 1.500 μL/min. The orifice potential was set between 55 and 65V, and the interface heater was at 56° C. Mass spectra were obtained by averaging a sufficient number of scans to obtain adequate signal to noise.
The sample was analyzed by ESI-MS.
The catalytic domain of stromelysin was prepared in accordance with well-known known procedures. […] The stromelysin used for this study was in a solution of 20 mM Tris buffer, 5 mM CaCl2, 0.02% NaN3 at a pH of 7.5 and at a concentration of either 19.6 mg/mL or 21.7 mg/mL. Acetohydroxamic acid was used for the zinc-binding site.
The second step in the design process was the identification of a second ligand that binds to the target stromelysin at a site different from the binding site of acetohydroxamic acid. This may be accomplished by screening compounds for their ability to bind stromelysin in the presence of saturating amounts of acetohydroxamic acid.
The next step in the design process was to construct a ternary complex of the target stromelysin, the first ligand and the second ligand. This was accomplished by exposing the stromelysin target to the two ligands under conditions that result in complex formation.

T3 sequence (P08254 100-272 limits assumed): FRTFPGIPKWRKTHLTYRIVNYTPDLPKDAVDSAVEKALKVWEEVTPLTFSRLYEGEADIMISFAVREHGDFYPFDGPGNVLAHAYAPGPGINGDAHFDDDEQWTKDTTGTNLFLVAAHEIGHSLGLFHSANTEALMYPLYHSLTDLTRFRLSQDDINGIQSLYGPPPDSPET

Row | specificity of association (no greater than 1:1 complex) [2] | Structure (SMILES) | competition of two ligands for the same binding site [2] | further results
1 | – | O=CCCc1ccccc1 [Compound 8D] | – | formation of specific complex with PTP1b [1]: formed specific complexes with PTP1b; IC50 (PTP1b): did not have the ability to block function
2 | – | COc1ccc(C(=O)NCc2ccccc2)cc1 [Ligand 7G] | – | competitive / non-competitive binder or non-binder [2]: competitive binders
3 | – | O=c1cc(O)c1=O [moniliformin] | – | pIC50 (PTP1b): 4.92
4 | specific | COc1ccc(C(=O)Nc2ccccc2)cc1 [4-methoxy-N-phenylbenzamide] | compete for the same binding site on the protein | –
5 | specific | CC(=O)NO [acetohydroxamic acid] | do not compete for the same binding site on a protein | –
6 | specific | N#Cc1ccc(-c2ccc(O)cc2)cc1 [4-(4′-cyanophenyl)-phenol] | do not compete for the same binding site on a protein | –
7 | – | c1ccc(-c2ccncc2)cc1 [Ligand 7B] | – | competitive / non-competitive binder or non-binder [2]: non-competitive binders
8 | bind to the protein specifically | N#Cc1ccc(NC(=O)Cc2ccccc2)cc1 [N-(4-cyanophenyl)-2-phenylacetamide] | do not compete for the same binding site on the protein | –
9 | – | O=c1c(O)c(-c2ccccc2)c1=O [Compound 8A] | – | formation of specific complex with PTP1b [1]: formed specific complexes with PTP1b; pKd ([1]; read-out: binding constant (Kd)): 4.60; pIC50 (PTP1b): 4.22

Row | Structure (SMILES) | specificity of association (no greater than 1:1 complex) [2] | competition of two ligands for the same binding site [2] | further results
10 | c1ccc(-c2ccncc2)cc1 [4-phenylpyridine] | specific; also recorded: bind to the protein specifically | – | –

From patent US20020172967A1, “Identification of non-covalent complexes by mass spectrometry” (priority 2001, published 2002)
